According to patent US20040224981A1, “Antibacterial methods and compositions” (priority 2003, published 2004):
Where two headings read alike, the source gives them in different places.

Tests used:
[1] = tested on: MRS-resistant mutants of S. aureus; assay: Susceptibility (MIC) of MRS-resistant mutants of S. aureus; assay type: cell-based; conditions: Staphylococcus aureus
Experimental: MRS-resistant mutants generated in vitro in either serial passage or spontaneous resistance development studies were evaluated for susceptibility to mupirocin alone and in a 1:1 combination with MRSi compound 5.

S. pyogenes = assay: MIC against S. pyogenes; assay type: cell-based, Streptococcus pyogenes; conditions: for MIC: Streptococcus pyogenes, Table 4, read-out: MIC
Experimental: (§1) The MRS inhibitor 4 alone and in combination with mupirocin (mupirocin salt and 1:1 combination) were tested against a collection of Gram-positive pathogens.
S. pyogenes is also a significant skin pathogen and 48 recent clinical isolates were tested for their susceptibility to MRSi compound 5 alone (acetate) and in combination (1:1) with mupirocin (mupirocinate).

E. faecium = assay: MIC against E. faecium; assay type: cell-based
Experimental: MRSi compound 5 alone and in combination with mupirocin was tested recent clinical isolates of E. faecalis (n=28) and E. faecium (n=23). Both the acetate salt and mupirocinate salts of MRSi compound 5 maintained potent activity against vancomycin-susceptible and—resistant enterococci (Tables 8, 9, and 10).

E. faecalis = assay: MIC against E. faecalis; assay type: cell-based; conditions: for Range (MIC): in µg/mL; for MIC: Enterococcus faecalis, read-out: MIC
S. hemolyticus = assay: MIC against S. hemolyticus; assay type: cell-based; conditions: Table 4, read-out: MIC
Experimental: as §1
The MRS inhibitor 8 was also prepared as a fusidate and mupirocinate salt and tested for antibacterial activity against Gram-positive bacteria (Table 3). […] MRSi compound 8 alone and the fusidate and mupirocin salts were active against mupirocin-resistant S. aureus and S. epidermidis and organisms such as E. faecalis that are not susceptible to mupirocin.
The MRS inhibitor 5 acetate and mupirocin salts were tested against a collection of Gram-positive bacteria.

S. aureus = assay: MIC against S. aureus strains and clinical isolates (broth microdilution); assay type: cell-based, Staphylococcus aureus; conditions: for MIC / MIC50 / MIC90: Staphylococcus aureus; for MIC50: read-out: MIC50; for MIC90: read-out: MIC90
Procedure, shortened: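 Broth microdilution per NCCLS in cation-supplemented Mueller-Hinton broth, final inoculum 5×10^5 CFU/ml from 0.5 McFarland suspensions diluted 1:10. Trays incubated aerobically overnight with quality control strains each run. Checkerboard FIC index: ≦0.5 synergy, >0.5 to 4 additive/indifferent, >4.0 antagonism.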

[2] = 48 recent clinical isolates of S. pyogenes
[3] = recent clinical isolates of E. faecium, ALL (23)
[4] = recent clinical isolates of E. faecalis, ALL (28)
[5] = all S. aureus isolates of Table 6
[6] = oxacillin-resistant S. aureus, Oxa-R (42)
[7] = oxacillin-susceptible S. aureus, Oxa-S (20)
[8] = recent clinical isolates of S. aureus, All (62)

C=C(F)c1sc(CNCCCNc2cc(=O)c3ccccc3[nH]2)c(C)c1Br [MRSi Cmpd 5 acetate, N-(4-bromo-5-(1-fluorovinyl)-3-methylthiophen-2-ylmethyl)-N′-(1H-quinolin-4-one)propane-1,3-diamine]
0.12 µg/mL: MIC90 (S. pyogenes; [2]) | MIC (S. pyogenes; ATCC19615, S. pyogenes ATCC 19615) | MIC (S. pyogenes; S. pyogenes MB000143) | MIC (S. hemolyticus; S. hemolyticus NRS50) | MIC90 (S. aureus; [8])
< 0.004 µg/mL: MIC50 (E. faecium; E. faecium, Van-R(12)) | MIC90 (E. faecium; E. faecium, Van-R(12)) | Mode (MIC) (E. faecium; E. faecium, Van-R(12)) | MIC50 (E. faecium; [3]) | MIC90 (E. faecium; [3]) | Mode (MIC) (E. faecium; [3]) | MIC50 (E. faecalis; E. faecalis, Van-R(11)) | Mode (MIC) (E. faecalis; E. faecalis, Van-R(11)) | MIC50 (E. faecalis; [4]) | Mode (MIC) (E. faecalis; [4])
<0.004-0.015: Range (MIC) (E. faecalis; E. faecalis, Van-R(11)) | Range (MIC) (E. faecalis; E. faecalis, Van-S (16)) | Range (MIC) (E. faecalis; [4])
4 µg/mL: MIC ([1]; S. aureus SP-1A2, metS A247E) | MIC ([1]; S. aureus SP-2C4, metS L213W) | MIC ([1]; S. aureus SP-9B5, metS I57N, V296F) | MIC ([1]; S. aureus SP-21A, metS A77V) | MIC ([1]; S. aureus SR1, metS I57N)
≦0.008 to 1 μg/mL: MIC Range (S. aureus; [6]) | MIC Range (S. aureus; [8])
<0.004-0.03: Range (MIC) (E. faecium; E. faecium, Van-R(12), in µg/mL) | Range (MIC) (E. faecium; recent clinical isolates of E. faecium, ALL (23), in µg/mL)
16 µg/mL: MIC ([1]; S. aureus SP-2B5, metS I57N, R100S) | MIC ([1]; S. aureus SP-2D4, metS I57N)
≦0.008 to 0.12 μg/mL: MIC Range (S. aureus; [7])
≤ 0.008 µg/mL: MIC (S. aureus; NRS107, Table 4, S. aureus NRS107 (mupA), read-out: MIC) | MIC (S. aureus; NRS107, Table 6, high-level mupirocin-resistant S. aureus NRS107, read-out: MIC) | MIC (S. aureus; Table 6, low-level mupirocin-resistant S. aureus 036-1298, read-out: MIC) | MIC (S. aureus; Table 6, low-level mupirocin-resistant S. aureus Miles Hall, read-out: MIC)
0.03 to 0.25: MIC Range (S. pyogenes; 48 recent clinical isolates of S. pyogenes, in µg/mL)
0.015 µg/mL: MIC90 (E. faecalis; E. faecalis, Van-R(11)) | MIC (E. faecalis; ATCC29212, Table 4, E. faecalis ATCC 29212) | MIC (E. faecalis; Table 4, E. faecalis 7) | MIC90 (E. faecalis; [4]) | MIC (S. aureus; NRS 1 / VISA, VISA, S. aureus NRS1 (Mu50), read-out: MIC) | MIC (S. aureus; Table 6, high-level mupirocin-resistant S. aureus LZ1, read-out: MIC) | MIC (S. aureus; Table 6, low-level mupirocin-resistant S. aureus 014-354, read-out: MIC) | MIC (S. aureus; Table 6, low-level mupirocin-resistant S. aureus 031-1334, read-out: MIC)
8 µg/mL: MIC ([1]; S. aureus SP-1B5, metS I57N)
0.03 µg/mL: MIC (S. aureus; NRS 18 / VISA, VISA, S. aureus NRS18 (HIP06854), read-out: MIC) | MIC (S. aureus; Table 6, S. aureus (mupirocin-susceptible) 010-100, read-out: MIC) | MIC (S. aureus; Table 6, S. aureus (mupirocin-susceptible) LZ9, read-out: MIC) | MIC (S. aureus; Table 6, S. aureus (mupirocin-susceptible) LZ10, read-out: MIC) | MIC (S. aureus; Table 6, high-level mupirocin-resistant S. aureus 010-420, read-out: MIC) | MIC (S. aureus; Table 6, high-level mupirocin-resistant S. aureus 25-670, read-out: MIC) | MIC (S. aureus; Table 6, high-level mupirocin-resistant S. aureus 87-2797, read-out: MIC) | MIC (S. aureus; Table 6, low-level mupirocin-resistant S. aureus LZ8, read-out: MIC) | MIC50 (S. aureus; [5]) | MIC50 (S. aureus; [6]) | MIC (S. aureus; oxacillin-resistant S. aureus, Oxa-R (42), read-out: MIC Mode) | MIC50 (S. aureus; [7]) | MIC50 (S. aureus; [8])
0.5 µg/mL: MIC (S. aureus; NRS127, Table 6, low-level mupirocin-resistant S. aureus NRS127, read-out: MIC) | MIC (S. aureus; Table 6, low-level mupirocin-resistant S. aureus 1081148, read-out: MIC) | MIC90 (S. aureus; [5]) | MIC90 (S. aureus; [6])
0.004 µg/mL: MIC (E. faecalis; Table 4, E. faecalis 1)
≦0.004: MIC50 (E. faecium; E. faecium, Van-S (11)) | MIC90 (E. faecium; E. faecium, Van-S (11)) | Mode (MIC) (E. faecium; E. faecium, Van-S (11)) | Range (MIC) (E. faecium; E. faecium, Van-S (11)) | MIC50 (E. faecalis; E. faecalis, Van-S (16)) | Mode (MIC) (E. faecalis; E. faecalis, Van-S (16))
≦0.008-0.5 μg/mL: MIC Range (S. aureus; [5])
0.008 µg/mL: MIC90 (E. faecalis; E. faecalis, Van-S (16)) | MIC (S. aureus; NRS 3 / VISA, VISA, S. aureus NRS3 (HIP5827), read-out: MIC) | MIC (S. aureus; NRS 4 / VISA, VISA, S. aureus NRS4 (HIP5836), read-out: MIC) | MIC (S. aureus; NRS 49 / VISA, VISA, S. aureus NRS49 (Korea), read-out: MIC) | MIC (S. aureus; NRS 56 / VISA, VISA, S. aureus NRS56 (Brazil), read-out: MIC)
0.25 µg/mL: MIC (S. hemolyticus; S. hemolyticus NRS116) | MIC (S. aureus; ATCC43300, Table 4, S. aureus ATCC 43300 (ORSA), read-out: MIC)
0.06 µg/mL: MIC ([1]; ATCC29213, S. aureus ATCC 29213, metS wild-type) | MIC ([1]; ATCC43300, S. aureus ATCC 43300, metS wild-type) | MIC50 (S. pyogenes; [2]) | Mode (MIC) (S. pyogenes; [2]) | MIC (S. aureus; ATCC29213, Table 4, S. aureus ATCC 29213, read-out: MIC) | MIC (S. aureus; NRS 24 / VISA, VISA, S. aureus NRS24 (HIP09143), read-out: MIC) | MIC (S. aureus; NRS54, Table 6, high-level mupirocin-resistant S. aureus NRS54, read-out: MIC) | MIC (S. aureus; NRS 54 / VISA, VISA, S. aureus NRS54 (Brazil), read-out: MIC) | MIC (S. aureus; Table 6, S. aureus (mupirocin-susceptible) 087-2789, read-out: MIC) | MIC (S. aureus; Table 6, high-level mupirocin-resistant S. aureus 1079101, read-out: MIC) | MIC (S. aureus; Table 6, high-level mupirocin-resistant S. aureus LZ6, read-out: MIC) | MIC90 (S. aureus; [7]) | MIC (S. aureus; oxacillin-susceptible S. aureus, Oxa-S (20), read-out: MIC Mode) | MIC (S. aureus; recent clinical isolates of S. aureus, All (62), read-out: MIC Mode)
0.008 to 0.25 µg/mL: MIC (S. aureus; VISA, all 8 vancomycin-intermediate S. aureus (VISA) isolates, read-out: MICs ranging)
